Data reported in patent US20220306695A1, “COMPSTATIN ANALOGUES AND THEIR MEDICAL USES” (priority 2019, published 2022).
Like-named read-outs stand apart in the source and are kept apart here. Starred links: 1 amine or outer side, 2 acyl side, 3 side chain; linkers in the order of their positions; H or OH if unused. Positions of bridges follow the written chain, without caps; N, C: chain ends. Non-standard residues stand in square brackets, D forms with d. Residues, ends and D or L forms follow the SMILES beside them. Groups on a side chain read outwards from the residue. *: point of attachment. Trp(1-Me) = Cn1cc(C[C@H](N)C(=O)O)c2ccccc21; C18 diacid = O=C(O)CCCCCCCCCCCCCCCCC(=O)*; γGlu = O=C(O)[C@H](CCC(=O)[*:2])N[*:1]; AEEA = NCCOCCOCC(=O)O; Sar = CNCC(=O)O

Test system: classical complement pathway
Test: In vitro haemolysis assay (inhibition of classical complement pathway)
Type: cell-based, human
How it was run: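 Serially diluted compound (9 points) was preincubated 15 min at room temperature with diluted human serum, titrated per batch to give 70-90% maximal haemolysis, in Tris/casein buffer pH 7.4 with Mg2+/Ca2+. Antibody-sensitized sheep erythrocytes were then added for 30 min at 37° C, and the reaction was stopped with EDTA. Haemolysis was read at A405, with IC50 from 4PL fit.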

[1] = Table 3, human serum, sensitized sheep red blood cells, read-out: IC50[nM], in vitro analysis of inhibition of hemolysis

Row | Compound | IC50 [1] | IC50 (Table 4, valine 3 versus isoleucine 3 pairs, read-out: CP hemolysis IC50)
1 | CC[C@H](C)[C@H](NC(=O)[C@H](C)NC(=O)[C@H](CO)NC(C)=O)C(=O)N[C@H]1CSSC[C@@H](C(=O)N[C@H](C(=O)N[C@@H](CCC(=O)O)C(=O)NCC(N)=O)[C@@H](C)O)NC(=O)[C@H](CCCNC(=N)N)NC(=O)[C@H](Cc2c[nH]cn2)NC(=O)[C@H](CCC(=O)O)NC(=O)CNC(=O)[C@H](Cc2c[nH]c3ccccc23)NC(=O)[C@H](CC(=O)O)NC(=O)[C@H](CCC(N)=O)NC(=O)[C@H](Cc2c[nH]c3ccccc23)NC(=O)[C@H]([C@@H](C)CC)NC1=O [Compound 42] (Ac-SAICIWQDWGEHRCTEG-NH2; disulfide 4-14) | < 250 nM | 
2 | CC[C@H](C)[C@@H]1NC(=O)[C@@H](NC(=O)[C@H](Cc2ccccc2)NC(=O)[C@H](CCC(=O)O)NC(=O)[C@H](CO)NC(C)=O)CSSC[C@@H](C(=O)N(C)CC(=O)N[C@@H](CCC(=O)O)C(=O)NCC(=O)N[C@@H](CCC(=O)O)C(=O)NCC(=O)NCC(=O)NCC(=O)N[C@@H](CCCCNC(=O)CC[C@H](NC(=O)CNC(=O)CC[C@H](NC(=O)CCCCCCCCCCCCCCCCC(=O)O)C(=O)O)C(=O)O)C(N)=O)NC(=O)[C@H](CCCNC(=N)N)NC(=O)[C@H](Cc2c[nH]cn2)NC(=O)[C@H](CCC(=O)O)NC(=O)CNC(=O)[C@H](Cc2c[nH]c3ccccc23)NC(=O)[C@H](CC(=O)O)NC(=O)[C@H](CCC(N)=O)NC(=O)[C@H](Cc2cn(C)c3ccccc23)NC1=O [Compound 129] (Ac-SEFCI[Trp(1-Me)]QDWGEHRC[Sar]EGEGGGK([γGlu-Gly-γGlu-C18 diacid])-NH2; disulfide 4-14) | < 100 nM | 
3 | CC[C@H](C)[C@H](NC(C)=O)C(=O)N[C@H]1CSSC[C@@H](C(=O)N[C@H](C(=O)NCC(=O)N[C@@H](C)C(=O)N[C@@H](CCC(=O)O)C(=O)N[C@@H](CO)C(N)=O)[C@@H](C)O)NC(=O)[C@H](CCCNC(=N)N)NC(=O)[C@H](Cc2c[nH]cn2)NC(=O)[C@H](CCC(=O)O)NC(=O)CNC(=O)[C@H](Cc2c[nH]c3ccccc23)NC(=O)[C@H](CC(=O)O)NC(=O)[C@H](CCC(N)=O)NC(=O)[C@H](Cc2c[nH]c3ccccc23)NC(=O)[C@H](C(C)C)NC1=O [D, reference compound] (Ac-ICVWQDWGEHRCTGAES-NH2; disulfide 2-12) |  | 210 nM
4 | CC[C@H](C)[C@@H]1NC(=O)[C@@H](NC(=O)[C@H](Cc2ccccc2)NC(=O)[C@H](CCC(=O)O)NC(C)=O)CSSC[C@@H](C(=O)N(C)CC(=O)N[C@@H](CCC(=O)O)C(=O)N[C@@H](C)C(=O)NCCOCCOCC(=O)NCCOCCOCC(=O)N[C@@H](CCCCNC(=O)CC[C@H](NC(=O)CNC(=O)CC[C@H](NC(=O)CCCCCCCCCCCCCCCCC(=O)O)C(=O)O)C(=O)O)C(N)=O)NC(=O)[C@H](CCCNC(=N)N)NC(=O)[C@H](Cc2c[nH]cn2)NC(=O)[C@H](CCC(=O)O)NC(=O)CNC(=O)[C@H](Cc2c[nH]c3ccccc23)NC(=O)[C@H](CC(=O)O)NC(=O)[C@H](CCC(N)=O)NC(=O)[C@H](Cc2cn(C)c3ccccc23)NC1=O [Compound 145] (Ac-EFCI[Trp(1-Me)]QDWGEHRC[Sar]EA[AEEA][AEEA]K([γGlu-Gly-γGlu-C18 diacid])-NH2; disulfide 3-13) | < 100 nM | 
5 | CC[C@H](C)[C@@H]1NC(=O)[C@@H](NC(=O)[C@H](Cc2ccc(O)cc2)NC(=O)[C@H](CCC(=O)O)NC(=O)[C@H](CO)NC(C)=O)CSSC[C@@H](C(=O)N(C)CC(=O)N[C@@H](CCC(=O)O)C(=O)NCC(=O)N[C@@H](C)C(=O)N[C@@H](CCCCNC(=O)CC[C@H](NC(=O)CNC(=O)CC[C@H](NC(=O)CCCCCCCCCCCCCCCCC(=O)O)C(=O)O)C(=O)O)C(N)=O)NC(=O)[C@H](CCCNC(=N)N)NC(=O)[C@H](Cc2c[nH]cn2)NC(=O)[C@H](CCC(=O)O)NC(=O)CNC(=O)[C@H](Cc2c[nH]c3ccccc23)NC(=O)[C@H](CC(=O)O)NC(=O)[C@H](CCC(N)=O)NC(=O)[C@H](Cc2cn(C)c3ccccc23)NC1=O [Compound 112] (Ac-SEYCI[Trp(1-Me)]QDWGEHRC[Sar]EGAK([γGlu-Gly-γGlu-C18 diacid])-NH2; disulfide 4-14) | < 500 nM | 
